Data taken from a melting point compilation (Tetko et al.; mined from patent text by program, amines drawn as free bases though some values may be those of a salt).

SMILES | melting point [°C]
CC(=C(C#N)C(=O)c1ccc(F)cc1)N(C)C | 65 to 67
Cc1cc(F)ccc1-c1nc(NCCNC(=O)NC2CCCCC2)nc2c1ccc(=O)n2-c1c(F)cccc1F | 131 to 144
COc1cc2c(cc1OC)S(=O)(=O)N(C)C(C(N)=O)C2 (configuration not stated) | 215 to 222
N#Cc1ccc(COc2cccc(OCc3ccc4ccccc4n3)c2)cc1 | 112
CC(C)(C)C(NC(=O)c1ccc(Cl)cc1)Nc1c(Nc2cnc(F)c(Br)c2)c(=O)c1=O (configuration not stated) | 249 to 252
CCCCCCNC(=O)c1cnc(OCC(O)CNC(C)C)nc1 (configuration not stated) | 114 to 115
COc1ccc2c(c1)c(Cc1nc(-c3ccc4ccccc4c3)cs1)c(C)n2C(=O)c1ccc(Cl)cc1 | 131 to 133
CCc1ccc(NN)c(Cl)c1 | 55 to 57
Cc1cc(Nc2ncnc3ccc(-c4cccs4)cc23)ccc1OCc1ccccn1 | 205 to 206
CC(C)(C)OC(=O)c1ncn2c1cc(C(=O)N1CCN(C3CC3)CC1)c1cc(Cl)ccc12 | 229 to 233
NS(=O)(=O)c1ccc(-c2cc(-c3nc(-c4ccc(Cl)cc4)cc(C(F)(F)F)n3)ccn2)s1 | 290
CCCCC(=O)c1c(-c2ccc3c(Br)c(OCC#N)ccc3c2)oc2ccccc12 | 98 to 100
CC1(C)C(=O)Nc2cc(-c3nc4ccc(Cl)cc4[nH]3)ccc21 | 287 to 289
Cc1nc(SCc2cnccc2C(=O)O)sc1CC(=O)O | 207 to 211
O=C(Nc1cc(F)cc2c(Cl)ccnc12)c1c(Cl)cccc1Cl | 200 to 213
O=c1c2c(N3CCNCC3)cc(Cl)cc2n(Cc2ccccc2)c(=O)n1Cc1ccccc1O | 113 to 130
CN(C)C1CCN(c2cc3ccc(Br)cc3c(=O)[nH]2)CC1 | 227 to 228
CCOC(=O)C1CC2=C(CO1)C(=O)C(Cl)=CC2=O (configuration not stated) | 83.5
Cc1ccc(NC(=O)c2ccc(CN(C)C)c(C(F)(F)F)c2)cc1-c1ccc2cnncc2c1 | 240 to 241
CC(=O)c1cccc(-c2ccc(COc3ccc(C(=O)O)c(O)c3)cc2)c1 | 215 to 220
CCc1cccc2c3c([nH]c12)C(CC)(CC(=O)OC)OCC3=O (configuration not stated) | 187 to 189
C=Cc1c2c(c(C)c(C)c1N1CCN(c3ccc(OC)cc3)CC1)OC(C)(C)C2 | 135 to 136
CCOC(=O)CCNCC(O)COc1ccc(OC)cc1C#N (configuration not stated) | 76
O=C(Cc1cccc2ccccc12)N1CC=C(c2cccc(C(F)(F)F)c2)CC1 | 137 to 140
CN(Cc1ccccc1)c1nc(N2CCC(NCC(c3ccccc3)c3ccccc3)CC2)nc2c(N3CCOCC3)ncnc12 | 106 to 108

SMILES | melting point [°C]
CCOC(=O)C=Cc1ccc(OC(C)C)c(OC)c1 | 103 to 104
CCC(=O)NCCC1CCc2ccc3nc(C)oc3c21 (configuration not stated) | 111 to 113
c1ccc(COCCOc2ccc(OCc3ccccc3)cc2)cc1 | 71 to 73
COc1ccc(-c2ccc(CC(=O)O)cc2F)cc1 | 140 to 142
Oc1cc(Cl)cc(Br)c1 | 66 to 68
COC(=O)c1ccccc1S(=O)(=O)Nn1c(C)nn(-c2nc(OC)cc(OC)n2)c1=O | 174
CC(=O)OCCC1CCn2c(c(C3=C(c4cn(C)c5ccccc45)C(=O)OC3=O)c3ccccc32)C1 (configuration not stated) | 159 to 161
C=CCSCCON=C(C(=O)O)c1csc(NC=O)n1 | 70 to 78
CCNc1ccnc(Cl)c1 | 55 to 57
CC1COC(c2ccccc2)(c2ccc(Cl)nc2)O1 (configuration not stated) | 44 to 51
CC(=O)c1ccc(NC(=O)NCCN(CCNC(=O)Nc2ccc(C(C)=O)cc2)CCNC(=O)Nc2ccc(C(C)=O)cc2)cc1 | 189 to 190
COc1ccc2nc(NCC3CCN(CC4COc5ccccc5O4)CC3)sc2c1 (configuration not stated) | 135
Clc1ccc(-c2cc(C3CC3)nc(Cl)n2)cc1 | 70 to 72
O=C1c2cccc3cccc(c23)C(=O)N1CCCCN1CCC(O)(c2ccccc2)CC1 | 138 to 139
COC(=O)C1=C(CC(=O)N2CCN(C)CC2)NC(CS(=O)c2ccccc2OC)=C(C(=O)OC)C1c1c(Cl)cccc1Cl (configuration not stated) | 160
CCOC(=O)N[C@H](C(=O)NN(Cc1ccc(-c2cncs2)cc1)C[C@H](O)[C@H](Cc1ccccc1)NC(=O)[C@@H](NC(=O)OC)C(C)C)C(C)C | 243 to 244
CCCOC(=O)CC(c1ccc(OC)cc1)N1C(=O)c2ccccc2C1=O (configuration not stated) | 51.2 to 52.8
NC(=NO)C1CCN(C(=O)OCc2ccccc2)CC1 | 111 to 113
Fc1cccc(-c2nc3cc(Br)ccn3n2)c1 | 186 to 188
CCOC(=O)c1c[nH]c2cc(-c3cc(C)nc(C)c3)c(F)cc2c1=O | > 300
Cc1nc2n(c(=O)c1CCN1CCC(c3noc4ccccc34)CC1)CCCC2 | 183
COc1ccc(C(=O)CCC(=O)O)c2c1OC(C)(C)C2 | 125 to 126
Cc1ccc(S(=O)(=O)N2CC3C(C2)C3Nc2ncc3cc(-c4ccccc4Cl)c(=O)n(C4CC4)c3n2)cc1 (configuration not stated) | 265 to 274
CC(=O)Nc1cncc(NC(=NC#N)NC2(c3ccccc3)CCC2)c1 | 207 to 208
Cn1c(Nc2c(Cl)cccc2Cl)nc2ccc3c(c21)C(=O)NC(C)(C)N3 | 238 to 239

SMILES | melting point [°C]
Cc1cc(-c2csc(NC(=N)N)n2)c[nH]1 | 235 to 237
COc1ccc(S(=O)(=O)C(CCCCc2ccccc2)CC(=O)NO)cc1OC (configuration not stated) | 157 to 159
CN(C1CCN(c2ncc3ncnc(Nc4ccc(F)c(Cl)c4)c3n2)CC1)S(C)(=O)=O | 225 to 227
COCCc1nc2c(N)nc3c(c2n1CCOCCNC(=O)c1ccccc1)CCCC3 | 141 to 143
Cc1cc(C2OC(C)(C)N=C2c2ccccc2)cc(C)c1N(C)C (configuration not stated) | 91 to 92
O=C(Nc1cccc2c(=O)cc(C(=O)O)oc12)c1ccc2c(c1)CC(CSCc1ccccc1)O2 (configuration not stated) | 122 to 125
CCOC(=O)Cc1ccc(NC(=O)C(CCO)NS(=O)(=O)c2ccc(Cl)cc2)cc1 (racemic) | 164 to 167
O=C(N1CCN(c2ncccn2)CC1)N1CC(Oc2cccc(C(F)(F)F)c2)C1 | 127 to 128
CCCc1nc(C(O)C(C)(C)C)c(C(N)=O)n1Cc1ccc(-c2ccccc2C(=O)O)cc1 (configuration not stated) | > 160
NS(=O)(=O)c1ccc(-n2nc(C(F)(F)F)cc2-c2ccc(-c3cocn3)cc2)cc1 | 170 to 172
CN(c1c(Cl)cc(Cl)cc1Cl)n1cc(C#N)c(=O)n(C)c1=O | 175 to 178
CS(=O)(=O)c1ccc(C(CC2CCOCC2)c2ccc(-c3nnc(CO)s3)[nH]2)cc1 (configuration not stated) | 199 to 201
CCSc1ncccc1C(=O)N1CCC(=O)c2ccc(Cl)cc21 | 120 to 123
CCC(=O)N[C@@H]1CN(C(=O)c2nn(C)c3ccccc23)C[C@@H]1C (relative stereo) | 139 to 141
CCCOCCc1ccc(-c2ccc3c(c2)C=C(C(=O)Nc2ccc(CN(C)C4CCOCC4)cc2)CCS3(=O)=O)c(F)c1 | 172 to 174
CS(=O)(=O)COC(=O)c1oc(-c2ccccc2)cc(=O)c1Br | 192
COC(=O)C(C)=CC(C)=Cc1cc([N+](=O)[O-])ccc1Cl | 88 to 90
Cc1nccn1-c1cccc(Nc2ccc(-c3ccoc3)cc2N)c1 | 98 to 99
NC(=O)Cc1ccc2c(c1)CCc1ccccc1C2=O | 174
CC(C)Oc1ccccc1C1(N[C@H](CO)c2ccccc2)C(=O)Nc2ccc(Cl)cc21 (some centres not stated) | 193
CC(O)CN(CCc1ccc(Nc2ncc3c(n2)-c2ccccc2C(c2cccc(Br)c2)C3)cc1)Cc1ccccc1 (configuration not stated) | 90 to 92
Cc1ccc2c(c1)C(NC(=O)CCl)CC(C)(C)O2 (configuration not stated) | 147 to 148
Cc1cc(Cn2cncc2C)cc2c1Cc1c(-c3ccsc3)n[nH]c1-2 | 260 to 264
CCCn1cc2c(C3C(=O)Nc4ccc(C#N)cc43)nc(NCCc3ccccn3)nc2n1 (configuration not stated) | > 300
CC(=N)N(C)C1CCCCC1 | 108 to 110

SMILES | melting point [°C]
C[C@@H]1S[C@@H](C(=O)Nc2ccc(CN3CCC(=O)CC3)cc2)Cc2cc3c(cc2C1=O)OCO3 | 199 to 201
CCc1cccc(CC)c1C(=O)Nc1cccc2c1CCN(C)C2 | 186 to 188
COc1nnc2n1C=Cc1cc(C)ccc1C2 | 148 to 149
Oc1cc2c(cc1OCCCOc1ccccc1)OCC2 | 106 to 107
C/C(=C(\C#N)C(N)=S)N1CCCN(c2ccccc2Cl)CC1 | 123 to 124
O=C(O)Cc1ccc2c(c1)C(=O)c1cc(Cl)ccc1CO2 | 169 to 171
CC(C)(C)OC(=O)c1ccc(C=NO)cc1 | 113 to 114
CN(C)CCCn1cc(C(=O)NCc2ccc(Cl)cc2)c(=O)c2cc(C#CCO)ccc21 | 172 to 175
CCc1ccccc1OS(=O)(=O)c1ccc(N2CCN(C)C2=O)cc1 | 126 to 128
COc1cc(C2=C(C(C)(C)C)C(C)(C)CO2)cc2oc(-c3ccccc3)nc12 | 68.5 to 69
COc1cccc(Oc2ccc3ccc(N)nc3n2)c1 | 160
CC(Oc1ccc(N(C)c2nc3cc(Cl)ccc3o2)cc1)C(=O)O (configuration not stated) | 152 to 154
CC(=O)NC12CC3(C)CC(C)(CC(O)(C3)C1)C2 | 194 to 195
COc1ccc(C(C)CNC(=O)C(N)=O)cc1OC1CCCC1 (configuration not stated) | 175 to 176
O=C(CNC(=O)c1ccc([N+](=O)[O-])c(F)c1)OCC(Cl)(Cl)Cl | 142 to 144
OC(COc1ccc(F)cc1)CN1CCC(=C2c3ccc(F)cc3CCn3ncnc32)CC1 (configuration not stated) | 134
Cc1cc(C)c2c(c1C)OCC2c1ccc(C(C)C)cc1 (configuration not stated) | 48 to 49
COC(=O)c1ccc(CCc2nc(-c3ccccc3)oc2C)cc1 | 59 to 60
CCOC(=O)Cc1csc(-c2cccc(Br)c2)n1 | 65 to 70
CCCCC(CC)CNCCOc1ccc2ccccc2c1 (configuration not stated) | 92
COc1c(C=CC(=O)c2ccc(O)cc2)ccc(O)c1C | 185 to 187
CC(C)(O)COc1ccc(CCCO)c(Oc2ncc(C(F)(F)F)cc2Cl)c1 | 81.2 to 82
